Assay results published in patent US20080293679A1, “Use of carotenoids and/or carotenoid derivatives/analogs for reduction/inhibition of certain negative effects of COX inhibitors” (priority 2005, published 2008).
Where two headings read alike, the source gives them in different places. Marks after values point to notes of the source that are not given here.

Experiments:
[1] = Lipid peroxide levels in DLPC multilamellar vesicles, C/P 0.2 (triiodide assay); assay type: biochemical; details: for Lipid Peroxide Levels: mean ± S.D.
Method: The levels of lipid peroxide formation were measured photometrically at specific time points. […] Samples were prepared in a glass test tube as described in the table above. […] Sample tubes were vortexed for 3 min to form MLVs. This assay is based on the principle of the oxidative capacity of lipid peroxides to convert […], which can be measured photometrically at […] (El-Saadani et al., 1989). […] Samples were placed in a water bath set at 37° C. Samples remained in the water bath throughout the experiment except for the temporary removal for time point extractions. • 2. […] • 3. After combining sample time point aliquots with CHOD active reagent and the diffraction buffer as described in the table above, test samples were incubated about 6 hours in darkness at ambient temperature. • 4. The absorbance ([…] nm) of the samples was measured using a spectrophotometer. • 5. […] This value was determined by adding known concentrations of I2 to the CHOD reagent. A stoichiometric relationship (slope=1.02) was observed between the amount of organic peroxides assayed and the concentration of I3^- produced.

[2] = Lipid peroxide (LOOH) formation in DAPC lipid vesicles with cholesterol (triiodide assay); assay type: biochemical
Method: The ability of astaxanthin to block the pro-oxidant effects of rofecoxib was tested in lipid vesicles reconstituted from DAPC (10 mg/ml) in physiologic buffer (0.5 mM HEPES, 154 mM NaCl, pH=7.32). The lipid vesicles also contained cholesterol at a level that reproduced physiologic conditions (0.2 cholesterol to phospholipid mole ratio). The drug effects were tested in the vesicles following addition of astaxanthin, rofecoxib or the combination of these two agents at an identical concentration (250 nM). To measure lipid peroxide (LOOH) formation, we used an assay that measures the conversion of I2 to I3^− (triiodide). This reaction takes place in the presence of LOOH in a manner that can be measured photometrically at 365 nm, El-Saadani, 1989. […] The lipid peroxidation reaction occurs gradually under normal atmospheric oxygen conditions in a shaking water bath (37° C.).

[3] = Peroxidation study in DLPC multilamellar vesicles, C/P 0.6; assay type: biochemical; details: C/P 0.6, carotenoid 10 μM, 48 hour
Method: 1. Samples were prepared in a glass test tube as described in the table above. This gives a cholesterol/DLPC mole ratio of 0.6 and a final concentration of 10 μM for the carotenoids. Equal volumes of vehicle (20 μl chloroform) were added to control samples. 2. All samples were dried down under a steady stream of nitrogen gas while vortexing. 3. Samples were placed in a vacuum desiccator for 2 hours to remove residual solvent and protected from light. 4. Multi-lamellar vesicles (MLVs) were prepared by the method developed by Bangham and Standish (1965). After samples were removed from the vacuum desiccator, they were immediately resuspended in 1 ml of diffraction buffer warmed to room temperature and vortexed for 3 minutes to form MLVs.
This assay is based on the principle of the oxidative capacity of lipid peroxides to convert I2 to I3^− (triiodide), which can be measured photometrically at 365 nm (el-Saadani et al., 1989). This assay is sensitive to peroxide concentrations as low as 10 μM.
1. Samples were placed in a water bath set at 37° C. throughout the experiment. 2. Aliquots of a sample (20 μl) were extracted at a 48 hour time point as described in the table below.
3. After combining the samples with CHOD active reagent and the diffraction buffer, test samples were incubated for about 6 hours in darkness at ambient temperature. 4. The absorbance of a sample was measured photometrically at 365 nm.
Concentrations of lipid peroxides were calculated by the use of the molar absorptivity of I3^− measured at 365 nm (ε=2.46±0.25×10^4M^−1 cm^−1). This value was determined by adding known concentrations of […] to the CHOD reagent. A stoichiometric relationship (slope=1.02) was observed between the amount of organic peroxides assayed and the concentration of I3^− produced.

human LDL [4] = test: Conjugated diene formation in isolated human LDL (CuSO4-induced oxidation); assay type: biochemical; details: 100 nM
Method: (§1) The effects of the compounds on lipid peroxidation were tested in isolated human LDL. Human venous blood was collected into vacutainer tubes containing K3EDTA after a 12-hour fast. Plasma was immediately separated by centrifugation at 3000 g for 25 minutes. LDL was obtained from plasma by ultracentrifugation using a procedure similar to that reported by Chung et al, 1986 using discontinuous KBr gradient. The purity of the freshly isolated LDL was assessed by SDS-PAGE using the procedure of Laemmli, 1970.
(§2) The extent of oxidation was measured for the LDL in the absence and presence of the drugs over a range of concentrations. Malondialdehyde (MDA), a product of lipid oxidation, was measured by the reaction of this aldehyde with thiobarbituric acid in an acid medium to form a stable chromogen, referred to as thiobarbituric-acid-reactive-substances (TBARS). Purified LDL (100 μg protein/ml) was incubated for 30 minutes with either vehicle or an NSAID at various concentrations followed by addition of 50 μM CuSO4 at 37° C. Conjugated diene formation was measured by continuously monitoring the change in absorbance at 234 nm on a Beckman DU 640 spectrophotometer, as described by Esterbauer et al., 1985. Stock solutions were tested for iron contamination, which can contribute independently to lipid peroxidation and assay artifacts.

human LDL [5] = test: MDA formation (TBARS) in isolated human LDL; assay type: biochemical
Method: as §1, §2

[6] = F2-isoprostane formation from DAPC lipid vesicles by GC/NCI-MS; assay type: biochemical; details: 100 nM; vehicle 140±25 ng/100 μl; mean ± S.D.
Method: F2-Isoprostanes are derived principally from the formation of positioned peroxyl radical isomers of arachidonic acid, endocyclization to protaglandin G2-like structures, and reduction to PGF2-like compounds. Total levels of F2-isoprostanes, in DAPC lipid vesicles prepared in the presence of vehicle or drug, were measured by GC-MS with negative chemical ionization as described by Walter et al., 2000. Peroxidation of lipids occurred over time in the absence of any exogenous initiators at 37° C. F2-Isoprostane formation was also measured independently using mass spectroscopy in a blinded study at the Antioxidant Research Laboratory, Tufts University, Boston, Mass.

[7] = Oxygen Radical Absorption Capacity (ORAC) of human plasma; assay type: biochemical; details: 1.0 μM
Method: The comparative effect of COX-2 selective agents on the antioxidant capacity of human plasma was assessed using the Oxygen Radical Absorption Capacity (ORAC) assay. This assay was carried out according to the method of Huang et al., 2002 with fresh plasma using a microplate fluorescence reader in 96 well format with the excitation and emission filters set at 485 and 530 nm respectively.

[8] = system: superoxide anion generation from phorbol-ester (PMA)-stimulated PMNs; test: Direct superoxide anion scavenging by EPR spectroscopy (DEPMPO spin trap), isolated human neutrophil assay; assay type: cell-based
Method: Leukocyte Isolation and Preparation. Human polymorphonuclear leukocytes (PMNs) were isolated from freshly sampled venous blood of a single volunteer by Percoll density gradient centrifugation as described previously. Briefly, each 10 mL of whole blood was mixed with 0.8 mL of 0.1 M EDTA and 25 mL of saline. The diluted blood was then layered over 9 mL of Percoll at a specific density of 1.080 g/mL. After centrifugation at 400×g for 20 min at 20° C., the plasma, mononuclear cell, and Percoll layers were removed. Erythrocytes were subsequently lysed by addition of 18 mL of ice-cold water for 30 s, followed by 2 mL of 10×PIPES buffer (25 mM PIPES, 110 mM NaCl, and 5 mM KCl, titrated to pH 7.4 with NaOH). Cells were then pelleted at 4° C., the supernatant was decanted, and the procedure was repeated. After the second hypotonic cell lysis, cells were washed twice with PAG buffer [PIPES buffer containing 0.003% human serum albumin (HSA) and 0.1% glucose]. Afterward, PMNs were counted by light microscopy on a hemocytometer. The isolation yielded PMNs with a purity of >95%. The final pellet was then suspended in PAG-CM buffer (PAG buffer with 1 mM CaCl2 and 1 mM MgCl2).
EPR Measurements. All EPR measurements were performed using a Bruker ER 300 EPR spectrometer operating at X-band with a TM110 cavity as previously described. The microwave frequency was measured with a Model 575 microwave counter (EIP Microwave, Inc., San Jose, Calif.). To measure superoxide anion ? generation from phorbol-ester (PMA)-stimulated PMNs, EPR spin-trapping studies were performed using the spin trap DEPMPO (Oxis, Portland, Oreg.) at 10 mM. 1×10^6 PMNs were stimulated with PMA (1 ng/mL) and loaded into capillary tubes for EPR measurements. To determine the radical scavenging ability of 3 and 9 in aqueous and ethanolic formulations, PMNs were pre-incubated for 5 minutes with test compound, followed by PMA stimulation.
Instrument settings used in the spin-trapping experiments were as follows: modulation amplitude, 0.32 G; time constant, 0.16 s; scan time, 60 s; modulation frequency, 100 kHz; microwave power, 20 milliwatts; and microwave frequency, 9.76 GHz. The samples were placed in a quartz EPR flat cell, and spectra were recorded. The component signals in the spectra were identified and quantified as reported previously.

[9] = assay type: physicochemical
Method: Determination of aqueous solubility/dispersibility. 30.13 mg of 3 was added to 1 mL of USP-purified water. The sample was rotated for 2 hours, then centrifuged for 5 minutes. After centrifuging, solid was visible in the bottom of the tube. A 125-μL aliquot of the solution was then diluted to 25 mL. The sample was analyzed by UV/Vis spectroscopy at 436 nm, and the absorbance was compared to a standard curve compiled from 4 standards of known concentration. The concentration of the original supernatant was calculated to be 2.85 mg/mL and the absorptivity was 36.94 AU*mL/cm*mg. Slight error may have been introduced by the small size of the original aliquot.
Next, 30.80 mg of 9 was added to 1 mL of USP-purified water. The sample was rotated for 2 hours, then centrifuged for 5 minutes. After centrifuging, solid was visible in the bottom of the tube. A 125-μL aliquot of the solution was then diluted to 25 mL. The sample was analyzed by UV/Vis spectroscopy at 411 nm, and the absorbance was compared to a standard curve compiled from 4 standards of known concentration. […] Slight error may have been introduced by the small size of the original aliquot.

[10] = alone at 250 nM, 48 hour incubation at 37° C.

CC1=C(/C=C/C(C)=C/C=C/C(C)=C/C=C/C=C(C)/C=C/C=C(C)/C=C/C2=C(C)C(=O)[C@@H](O)CC2(C)C)C(C)(C)C[C@H](O)C1=O [Astaxanthin, 3,3′-dihydroxy-β,β′-carotene-4,4′-dione]
% increase (+) or decrease (−) of lipid peroxide levels compared to control ([1]; 24 Hour, carotenoid 1 μM): −6.9%^a | Lipid Peroxide Levels ([1]; 24 Hour, carotenoid 1 μM, control 218 ± 20): 203 ± 17 µM | % increase (+) or decrease (−) of lipid peroxide levels compared to control ([1]; 24 Hour, carotenoid 10 μM): −22.5% | Lipid Peroxide Levels ([1]; 24 Hour, carotenoid 10 μM, control 218 ± 20): 169 ± 7 µM | % increase (+) or decrease (−) of lipid peroxide levels compared to control ([1]; 48 Hour, carotenoid 1 μM): −12.6%^a | Lipid Peroxide Levels ([1]; 48 Hour, carotenoid 1 μM, control 572 ± 76): 500 ± 57 µM | % increase (+) or decrease (−) of lipid peroxide levels compared to control ([1]; 48 Hour, carotenoid 10 μM): −40.7%^a | Lipid Peroxide Levels ([1]; 48 Hour, carotenoid 10 μM, control 572 ± 76): 339 ± 42 µM | antioxidant/pro-oxidant effect ([1]; C/P 0.2): strong antioxidant effect | decrease in lipid peroxidation vs control ([2]; added together with rofecoxib at equimolar concentration (250 nM)): 6.5% | decrease in lipid peroxidation vs control [2, 10]: 4.4% | antioxidant/prooxidant activity [3]: the only antioxidant

CS(=O)(=O)c1ccc(C2=C(c3ccccc3)C(=O)OC2)cc1 [rofecoxib]
decrease in lag time for human LDL conjugated diene formation (human LDL [4]): 42.8±1.5% | effect on MDA levels (TBARS) in human LDL (human LDL [5]): marked increases | effect on MDA levels (TBARS) in human LDL (human LDL [5]; 50 nM, 10-fold lower than comparison drugs): significant increase | increase in lipid peroxide levels vs control [2, 10]: 7.4% | Levels of isoprostanes [6]: 190±18 ng/100 μl | reduction of ORAC value ([7]; fresh human plasma): 34% | ORAC value (AUC) ([7]; vehicle 28.1±1.2): 18.6±1.3

β,ε-carotenyl 3,3′-disuccinate sodium salt [Lutein Disuccinate Sodium Salt]
Mean (% inhibition) of superoxide anion signal ([8]; 40% EtOH, 0.1 mM, listed as disodium disuccinate derivative of natural source lutein, sodium salt): did not significantly increase scavenging | Mean (% inhibition) of superoxide anion signal ([8]; 40% EtOH, 0.1 mM, sodium salt): 5.0% | Mean (% inhibition) of superoxide anion signal ([8]; Water, 0.1 mM): 0% | Mean (% inhibition) of superoxide anion signal ([8]; Water, 1.0 mM): 13.0% | Mean (% inhibition) of superoxide anion signal ([8]; Water, 3.0 mM): 61.7% | Mean (% inhibition) of superoxide anion signal ([8]; Water, 5.0 mM, listed as disodium disuccinate derivative of natural source lutein, sodium salt): ~75% | Mean (% inhibition) of superoxide anion signal ([8]; Water, 5.0 mM, listed as disuccinate lutein sodium salt, sodium salt): 75% | Mean (% inhibition) of superoxide anion signal ([8]; Water, 5.0 mM, sodium salt): 74.7% | aqueous solubility/dispersibility [9]: 2850 µg/mL
